This is an account of results in patent publication US8106055B2, “Substituted amide compounds” (Gruenenthal GmbH, priority 2007, dated 2012).

Assay [1] concerns the target T1, serotonin (5-HT) reuptake (Rattus norvegicus, UniProt P31652).
T1 construct: synaptosomes are freshly isolated from areas of the rat brain; from tissue; host or cells: rat brain synaptosomes (P2 fraction)
The experiment in a line: Inhibition of serotonin (5HT) reuptake in synaptosomes from rat brain. Format: biochemical. The note with it: test concentration of 10 μM. An outline of the steps:
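Freshly isolated rat brain synaptosomes (P2 fraction) used for 5-HT reuptake. Test compound at 10 μM, activity given as % inhibition.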

The target in assay [2] is T2, human bradykinin 1 receptor (B1R) (Homo sapiens, UniProt P46663).
T2 construct: expressed in transfected cells; host or cells: CHO K1 cells
T2 sequence (P46663 1-353): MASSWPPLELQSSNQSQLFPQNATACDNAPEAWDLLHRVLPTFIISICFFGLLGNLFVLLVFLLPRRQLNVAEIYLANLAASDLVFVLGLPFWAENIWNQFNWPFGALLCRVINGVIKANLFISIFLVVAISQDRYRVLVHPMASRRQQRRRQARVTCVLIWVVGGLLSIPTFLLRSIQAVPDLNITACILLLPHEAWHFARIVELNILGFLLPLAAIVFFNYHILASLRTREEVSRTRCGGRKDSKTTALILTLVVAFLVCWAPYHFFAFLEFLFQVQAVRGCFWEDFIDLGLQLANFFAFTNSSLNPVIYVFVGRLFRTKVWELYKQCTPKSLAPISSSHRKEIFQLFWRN
Put plainly: Functional investigation on the human bradykinin 1 receptor (B1R), Ca2+ FLIPR assay in CHO K1 hB1R cells. The note with it: B1R antagonism human; test substance 10 μM; Ca2+ FLIPR, CHO K1 hB1R cells. Format: cell-based. An outline of the steps:
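Cells were dye-loaded with Fluo-4 plus probenecid, then test substances added and Ca2+ influx compared with agonist control for % activation. After 10-20 min, EC80 agonist (Lys-Des-Arg9-bradykinin human; Des-Arg9-bradykinin rat) was applied; suppression gave % inhibition and IC50 values.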

T1 sequence (P31652 whole entry): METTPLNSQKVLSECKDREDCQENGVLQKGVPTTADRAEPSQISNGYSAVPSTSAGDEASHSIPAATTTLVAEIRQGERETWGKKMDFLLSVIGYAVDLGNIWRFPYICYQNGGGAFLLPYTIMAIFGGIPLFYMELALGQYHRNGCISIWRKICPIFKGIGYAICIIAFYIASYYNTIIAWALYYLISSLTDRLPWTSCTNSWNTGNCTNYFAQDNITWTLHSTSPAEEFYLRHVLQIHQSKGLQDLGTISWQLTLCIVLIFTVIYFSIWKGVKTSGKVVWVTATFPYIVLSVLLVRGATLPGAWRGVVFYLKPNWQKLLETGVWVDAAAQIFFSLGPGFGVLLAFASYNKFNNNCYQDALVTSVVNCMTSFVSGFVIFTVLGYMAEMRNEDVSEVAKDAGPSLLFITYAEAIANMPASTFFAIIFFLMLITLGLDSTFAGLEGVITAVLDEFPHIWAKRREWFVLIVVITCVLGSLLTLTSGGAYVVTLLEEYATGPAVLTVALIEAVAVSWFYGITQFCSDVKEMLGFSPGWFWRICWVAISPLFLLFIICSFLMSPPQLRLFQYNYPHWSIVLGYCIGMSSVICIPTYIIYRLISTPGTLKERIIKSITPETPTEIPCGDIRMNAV

On to `CN(C)C(c1ccc(F)cc1)C1CCC(NC(=O)COC2CCN(S(=O)(=O)c3ccccc3)C2)CC1` (centres unmarked) [Example 463], for which, in assay [1], the “5-HT (inhibition of reuptake of serotonin, % inhibition)” value is 97%. Also, the “B1R Ant. h [10 μM] % Inhibition” value in assay [2] was −7%.
As for `COc1cc(C)c(S(=O)(=O)N2CCC(OCC(=O)NCCC3CCC(C(c4ccc(F)cc4)N(C)C)CC3)C2)c(C)c1C` (centres unmarked) [Example 467], the “5-HT (inhibition of reuptake of serotonin, % inhibition)” value in assay [1] is recorded as 95%. For the same compound, the “B1R Ant. h [10 μM] % Inhibition” value in assay [2] stood at 67%.
With `CN(C)C(c1cccc(F)c1)C1CCC(CNC(=O)COC2CCN(S(=O)(=O)c3ccccc3)CC2)CC1` (centres unmarked) [Example 477], the “5-HT (inhibition of reuptake of serotonin, % inhibition)” value in assay [1] came out at 95%. Further, in assay [2], the “B1R Ant. h [10 μM] % Inhibition” value is −16%.
With `COc1ccc(S(=O)(=O)N2CCCC2COCC(=O)NC2CCC(C(c3ccc(F)cc3)N(C)C)CC2)cc1` (centres unmarked) [Example 461], the “5-HT (inhibition of reuptake of serotonin, % inhibition)” value in assay [1] is 94%. In addition, in assay [2], the “B1R Ant. h [10 μM] % Inhibition” value came to 13%.
The corresponding values for `CN(C)C(c1ccc(F)cc1)C1CCC(CCNC(=O)COCCN(Cc2ccccc2)S(=O)(=O)c2ccccc2)CC1` (centres unmarked) [Example 489] are 97% and 34%.
Turning to `COc1ccc(S(=O)(=O)N(C)CCOCC(=O)NCC2CCC(C(c3ccc(F)cc3)N(C)C)CC2)cc1` (centres unmarked) [Example 508], the “5-HT (inhibition of reuptake of serotonin, % inhibition)” value in assay [1] is 80%. Further, the “B1R Ant. h [10 μM] % Inhibition” value in assay [2] stood at 46%.
As to `Cc1ccc(S(=O)(=O)N2CCC(OCC(=O)NCC3CCC(C(CCc4ccccc4)N(C)C)CC3)C2)cc1` (centres unmarked) [Example 538], the “5-HT (inhibition of reuptake of serotonin, % inhibition)” value in assay [1] was found to be 91%. Besides, in assay [2], the “B1R Ant. h [10 μM] % Inhibition” value is reported as 7%.
Turning to `COc1cc(C)c(S(=O)(=O)N2CCC(OCC(=O)NCC3CCC(C(CCc4ccccc4)N(C)C)CC3)C2)c(C)c1C` (centres unmarked) [Example 503], in assay [1], the “5-HT (inhibition of reuptake of serotonin, % inhibition)” value is on record as 90%. Moreover, the “B1R Ant. h [10 μM] % Inhibition” value in assay [2] was found to be 105%.
On the same counts, the results for `CN(C)C(c1ccc(F)cc1)C1CCC(NC(=O)COCCN2CCN(S(=O)(=O)c3ccccc3)CC2)CC1` (centres unmarked) [Example 502] are 97% and −3%.
As to `COc1cc(C)c(S(=O)(=O)N2CCC(CCOCC(=O)NCC3CCC(C(CCc4ccccc4)N(C)C)CC3)CC2)c(C)c1C` (centres unmarked) [Example 521], the “5-HT (inhibition of reuptake of serotonin, % inhibition)” value in assay [1] was determined as 89%. In addition, in assay [2], the “B1R Ant. h [10 μM] % Inhibition” value is 66%.
On the same counts, the results for `COc1cc(C)c(S(=O)(=O)N2CCC(CCOCC(=O)NCC3CCC(C(c4ccc(Cl)cc4)N(C)C)CC3)CC2)c(C)c1C` (centres unmarked) [Example 499] are 75% and 25%.
In the case of `COc1ccc(S(=O)(=O)N2CCCCC2CCOCC(=O)NCC2CCC(C(CCc3ccccc3)N(C)C)CC2)cc1` (centres unmarked) [Example 535], the “5-HT (inhibition of reuptake of serotonin, % inhibition)” value in assay [1] was 85%. Further, in assay [2], the “B1R Ant. h [10 μM] % Inhibition” value amounted to 77%.
The corresponding values for `CN(C)C(CCc1ccccc1)C1CCC(CNC(=O)COCCN(C)S(=O)(=O)c2c(Cl)cc(Cl)cc2Cl)CC1` (centres unmarked) [Example 515] are 97% and 101%.
As to `Cc1cc(C)c(S(=O)(=O)N2CCC(OCC(=O)NCC3CCC(C(CCc4ccccc4)N(C)C)CC3)C2)c(C)c1` (centres unmarked) [Example 475], the “5-HT (inhibition of reuptake of serotonin, % inhibition)” value in assay [1] is 87%. For the same compound, the “B1R Ant. h [10 μM] % Inhibition” value in assay [2] was found to be 103%.
On the same counts, the results for `Cc1ccc(S(=O)(=O)N(C)CCOCC(=O)NCC2CCC(C(CCc3ccccc3)N(C)C)CC2)cc1` (centres unmarked) [Example 452] are 88% and 37%.
Regarding `COc1cc(C)c(S(=O)(=O)N(CCOCC(=O)NCC2CCC(C(c3ccc(Cl)cc3)N(C)C)CC2)Cc2ccccc2)c(C)c1` (centres unmarked) [Example 473], in assay [1], the “5-HT (inhibition of reuptake of serotonin, % inhibition)” value stood at 64%. In addition, the “B1R Ant. h [10 μM] % Inhibition” value in assay [2] was 52%.
On the same counts, the results for `CN(C)C(c1ccc(F)cc1)C1CCC(CCNC(=O)COC2CCN(S(=O)(=O)c3ccc(Cl)cc3)C2)CC1` (centres unmarked) [Example 464] are 88% and −2%.
Turning to `CN(C)C(c1ccccc1)C1CCC(CNC(=O)COCCC2CCN(S(=O)(=O)c3ccccc3)CC2)CC1` (centres unmarked) [Example 507], in assay [1], the “5-HT (inhibition of reuptake of serotonin, % inhibition)” value stood at 75%. The “B1R Ant. h [10 μM] % Inhibition” value in assay [2] is given as −19%.
As for `Cc1ccc(S(=O)(=O)N2CCC(OCC(=O)NCCC3CCC(C(c4ccc(F)cc4)N(C)C)CC3)C2)cc1` (centres unmarked) [Example 491], in assay [1], the “5-HT (inhibition of reuptake of serotonin, % inhibition)” value was found to be 90%. For the same compound, the “B1R Ant. h [10 μM] % Inhibition” value in assay [2] came to 5%.
As for `COc1cc(C)c(S(=O)(=O)N2CCC(OCC(=O)NCCC3CCC(C(c4ccc(F)cc4)N(C)C)CC3)C2)c(C)c1` (centres unmarked) [Example 509], the “5-HT (inhibition of reuptake of serotonin, % inhibition)” value in assay [1] was 97%. The “B1R Ant. h [10 μM] % Inhibition” value in assay [2] was found to be 104%.
On the same counts, the results for `Cc1cc(C)c(S(=O)(=O)N2CCC(OCC(=O)NCCC3CCC(C(c4ccc(Cl)cc4)N(C)C)CC3)C2)c(C)c1` (centres unmarked) [Example 506] are 86% and 83%.
Regarding `Cc1ccc(S(=O)(=O)N(C)CCOCC(=O)NCCC2CCC(C(c3ccc(F)cc3)N(C)C)CC2)cc1` (centres unmarked) [Example 457], the “5-HT (inhibition of reuptake of serotonin, % inhibition)” value in assay [1] amounted to 90%. In addition, in assay [2], the “B1R Ant. h [10 μM] % Inhibition” value is on record as 14%.
`CN(C)C(c1ccc(Cl)cc1)C1CCC(CNC(=O)COC2CCN(S(=O)(=O)c3ccccc3)CC2)CC1` (centres unmarked) [Example 471]: the “5-HT (inhibition of reuptake of serotonin, % inhibition)” value in assay [1] was 94%. The “B1R Ant. h [10 μM] % Inhibition” value in assay [2] is given as 7%.
Take `CN(C)C(c1ccc(F)cc1)C1CCC(CCNC(=O)COC2CCN(S(=O)(=O)c3ccc(Cl)cc3Cl)C2)CC1` (centres unmarked) [Example 456]: the “5-HT (inhibition of reuptake of serotonin, % inhibition)” value in assay [1] turned out to be 88%. Moreover, the “B1R Ant. h [10 μM] % Inhibition” value in assay [2] was determined as 80%.
Turning to `CN(C)C(c1ccc(F)cc1)C1CCC(NC(=O)COCC2CCCN(S(=O)(=O)c3ccccc3)C2)CC1` (centres unmarked) [Example 478], the “5-HT (inhibition of reuptake of serotonin, % inhibition)” value in assay [1] came to 97%. In assay [2], the “B1R Ant. h [10 μM] % Inhibition” value is listed as −3%.
Consider `COc1cc(C)c(S(=O)(=O)N2CCCC(OCC(=O)NCCC3CCC(C(c4ccc(Cl)cc4)N(C)C)CC3)C2)c(C)c1C` (centres unmarked) [Example 485], for which, in assay [1], the “5-HT (inhibition of reuptake of serotonin, % inhibition)” value is recorded as 92%. Besides, the “B1R Ant. h [10 μM] % Inhibition” value in assay [2] was 5%.
On the same counts, the results for `COc1cc(C)c(S(=O)(=O)N(CCOCC(=O)NCC2CCC(C(c3ccc(F)cc3)N(C)C)CC2)Cc2ccccc2)c(C)c1` (centres unmarked) [Example 494] are 89% and 86%.
The corresponding values for `COc1ccc(S(=O)(=O)N2CCCCC2COCC(=O)NCCC2CCC(C(c3ccc(Cl)cc3)N(C)C)CC2)cc1OC` (centres unmarked) [Example 540] are 81% and −19%.
As to `COc1ccc(S(=O)(=O)N(C)CCOCC(=O)NCCC2CCC(C(c3ccc(Cl)cc3)N(C)C)CC2)cc1` (centres unmarked) [Example 460], the “5-HT (inhibition of reuptake of serotonin, % inhibition)” value in assay [1] is given as 86%. Also, the “B1R Ant. h [10 μM] % Inhibition” value in assay [2] is recorded as 50%.
With `CN(C)C(c1ccc(Cl)cc1)C1CCC(CCNC(=O)COCCC2CCN(S(=O)(=O)c3ccccc3)CC2)CC1` (centres unmarked) [Example 531], the “5-HT (inhibition of reuptake of serotonin, % inhibition)” value in assay [1] was determined as 98%. The “B1R Ant. h [10 μM] % Inhibition” value in assay [2] is reported as 2%.
For the compound `CN(C)C(CCc1ccccc1)C1CCC(CNC(=O)COCCN2CCN(S(=O)(=O)c3ccccc3)CC2)CC1` (centres unmarked) [Example 526], the “5-HT (inhibition of reuptake of serotonin, % inhibition)” value in assay [1] is 90%. The “B1R Ant. h [10 μM] % Inhibition” value in assay [2] was found to be 10%.
